# From patent US5886190A, “Rapid synthesis and use of 18F-fluoromisonidazole and analogs” (priority 1997, dated 1999)
# Tests used:
# [1] = test system: mammary tumor; assay: Autoradiographic studies in tumor-bearing rats; details: 1 hour postinjection
# Description: (§1) The synthesis scheme for [^18 F]FETNIM is depicted in FIG. 6. Biodistribution studies of [^18 F]FETNIM were performed at 1, 2 and 4 hours in mammary tumor-bearing rats (10 μCi, iv, N=3/time interval). Autoradiograms were performed at 1 hour postinjection of [^18 F]FETNIM, and a comparison has been made with [^18 F]fluoromisonidazole (FMISO). Intratumoral oxygen tension measurements were performed using the Eppendorf computerized histographic system. Twenty to twenty-five pO2 measurements along each of 2 to 3 linear tracks were performed at 0.4 mm intervals on each tumor. PET imaging studies of [^18 F]FETNIM were performed in rabbits bearing V2 tumors (N=3, 4 mCI, iv) which were located on the right leg.
# Female Fischer 344 mammary tumor-bearing rats (n=3) after receiving [^18 F]FETNIM (2 mCi, iv) were sacrificed at 1 h. […] The rats were sacrificed at 1 hour postinjection. The rat body was fixed in a carboxymethyl cellulose (4%) block. The frozen body in a block was mounted to a cryostat (LKB 2250 cryo-microtome, Ijamsville, Md.) and 40 μm coronal sections were made. The section was freeze dried, then mounted on a x-ray film (X-Omat AR, Kodak, Rochester, N.Y.) for 24 hours.
# [2] = assay type: in vivo, 70 Kg male (human)
# Source text: The following Table summarizes the results of dosimetry calculation for radiation exposure to several […] tissues.
# Dosimetry: Normal Tissue Dosimetry for ^18 F-FMISO
# [3] = test system: hypoxic elements within a tumor volume; assay: Patient studies of ^18 F-FMISO uptake in tumors; details: in vivo
# Source text: In patient studies, the hypoxic elements within a tumor volume was defined as regions with a threshold regional tumor to plasma (^18 F-FMISO) ratio of ≥1.4 by 2 or more hours after injection.
# [4] = test system: rats; details: 2 mCi/Kg single dose; n=3; follow-up 5 days
# Description: In addition, animal acute toxicity studies have been performed, rats (n=3) were administered 2 mCi/Kg as a single dose.
# [5] = test system: nasalpharyngeal cancer (NPC); assay: PET imaging of patients with nasalpharyngeal cancer; assay type: in vivo, human (patients); details: 10 mCi
# Description: PET imaging studies were performed on two patients with nasalpharyngeal cancer (NPC). […] After each patient had received 10 mCi of [^18 F]FMISO, eight consecutive 15-min scans were taken. […] Each patient was also administered [^18 F]FDG to ascertain the tumor region.
# [6] = test system: hypoxic cells; assay: Selectivity to hypoxic cells (PET imaging, autoradiograms, biodistribution); details: in vivo
# Description: as §1
# PET imaging was performed with a positron camera (Positron Corporation, Houston, Tex.). The tomograph has a field-of-view of 42 cm on transverse and 12 cm on coronal planes. The axial resolution on the reconstructed plane is 1.2 cm. […]
# Female Fischer 344 rats (250-275 g) (Harlan, Inc., Indianapolis, Ind.) were inoculated with mammary tumor cells in the lumbar area using a 13762 tumor cell line (s.c. 10^5 cells/rat). […] The tissues were excised, weighed and counted for radioactivity. The percent of injected dose per gram of tissue weight was determined.
# [7] = test system: hypoxic elements within a tumor volume; details: 2 or more hours after injection; cited from earlier work
# [8] = test system: intracellular nitroreductases; details: cited from earlier work
# [9] = test system: hypoxic cells; details: radiobiologically significant oxygen levels; cited from earlier work
compound,measurement,setting,value
"O=[N+]([O-])c1nccn1CC(O)C[18F] (stereo not shown) [[^18 F]FMISO, 3-[^18 F]Fluoro-1-(2'-nitro-1'-imidazoyl)-2-propanol]",Uptake in intestines and colon,[1],high uptake
same,Differentiation of hypoxic versus necrotic regions in the tumor,[1]; autoradiogram,could differentiate hypoxic versus necrotic regions in the tumor
same,Bladder wall dose relative to muscle dose,"[2]; 70 Kg male, 0.1 mCi/Kg",about five times as much
same,Liver and kidney dose relative to muscle dose,"[2]; 70 Kg male, 0.1 mCi/Kg",nearly twice the muscle dose
same,Total body musculature dose in a routine study,"[2]; 70 Kg male, 0.1 mCi/Kg",120 mrem
same,"Normal tissue dose, bladder","[2]; bladder, 7 mCi/70 Kg, n = 2",570 mrad
same,"Normal tissue dosimetry, bladder","[2]; bladder, ± SD",81.5 ± 47 mrad/mCi
same,"Normal tissue dose, kidney","[2]; kidney, 7 mCi/70 Kg, n = 3",180 mrad
same,"Normal tissue dosimetry, kidney","[2]; kidney, ± SD",25.8 ± 5.5 mrad/mCi
same,"Normal tissue dose, liver","[2]; liver, 7 mCi/70 Kg, n = 3",190 mrad
same,"Normal tissue dosimetry, liver","[2]; liver, ± SD",26.8 ± 9.7 mrad/mCi
same,"Normal tissue dose, muscle","[2]; muscle, 7 mCi/70 Kg, n = 6",120 mrad
same,"Normal tissue dosimetry, muscle","[2]; muscle, ± SD",16.8 ± 7.9 mrad/mCi
same,Feasibility of detecting hypoxia in human head and neck tumors,[3],feasibility of using ^18 F-FMISO to detect hypoxia in human head and neck tumors
same,Acute toxicity,[4],All rats tolerated this dose without toxicity
same,Detection of hypoxic tumors by PET,[5],able to detect primary or metastatic hypoxic tumors
same,"PET tumor uptake, first patient",[5]; first patient,showed tumor uptake in the lymph node region
same,"PET finding, second patient",[5]; second patient,the recurrent primary tumor is hypoxic
same,Selectivity to hypoxic cells,[6],selective to hypoxic cells
same,Threshold regional tumor to plasma ratio defining hypoxic elements,[7],≥ 1.4
same,Metabolism,[8],metabolized by intracellular nitroreductases
same,Selective binding to hypoxic cells,[9],bind selectively to hypoxic cells in vitro and in vivo
